# US6689773B2, “Uracil substituted phenyl sulfamoyl carboxamides” (BASF Aktiengesellschaft, priority 2000, dated 2004)
# Assays:
# Type in all cases: in vivo
# [1] = system: XANST, Cocklebur, Xanthium strumariam; experiment: Preemergence herbicidal evaluation (Example 148); settings: rating scale 0-9, two to four weeks after treatment
# Experimental: (§1) The scale is based upon a visual observation of plant stand, vigor, malformation, size, chlorosis and overall plant appearance as compared with a control.
# (§2) The herbicidal activity of the compounds of the present invention was evaluated by the following tests wherein the seeds of a variety of monocotyledonous and dicotyledonous plants were separately mixed with potting soil and planted on top of approximately one inch of soil in separate pint cups. After planting, the cups were sprayed with the selected aqueous acetone solution containing test compound in sufficient quantity to provide the equivalent of about 0.125 to 0.250 kg per hectare of test compound per cup. The treated cups were then placed on greenhouse benches, watered and cared for in accordance with conventional greenhouse procedures. From two to four weeks after treatment, the tests were terminated and each cup was examined and rated according to the rating system provided in Example 94. When more than one test was performed for a given compound, the data were averaged.
# [2] = system: SETVI, Green foxtail, Setaria viridis, (L.)Beau; experiment: Preemergence herbicidal evaluation (Example 148); settings: rating scale 0-9, two to four weeks after treatment
# Experimental: as §1, §2
# [3] = system: AMBEL, Ragweed, Common, Ambrosia artemiisifolia, L.; experiment: Preemergence herbicidal evaluation (Example 148); settings: rating scale 0-9, two to four weeks after treatment
# Experimental: as §1, §2
# [4] = system: ZEAMX, Field corn, Zea mays L.; experiment: Preemergence herbicidal evaluation (Example 148); settings: rating scale 0-9, two to four weeks after treatment
# Experimental: as §1, §2
# [5] = system: ALOMY, Blackgrass, Alopecurus myosuroides; experiment: Preemergence herbicidal evaluation (Example 148); settings: rating scale 0-9, two to four weeks after treatment
# Experimental: as §1, §2
# [6] = system: IPOHE, Morningglory, Ivyleaf, Ipomoea hederacea, (L)Jacq.; experiment: Preemergence herbicidal evaluation (Example 148); settings: rating scale 0-9, two to four weeks after treatment
# Experimental: as §1, §2
# [7] = system: ABUTH, Velvetleaf, Abutilon theophrasti, Medic.; experiment: Preemergence herbicidal evaluation (Example 148); settings: rating scale 0-9, two to four weeks after treatment
# Experimental: as §1, §2
# [8] = system: GLXMA, Soybean, Glycine max, (L.) Merr.; experiment: Preemergence herbicidal evaluation (Example 148); settings: rating scale 0-9, two to four weeks after treatment
# Experimental: as §1, §2
# [9] = system: TRZAW, Winter wheat, Tritium Aestivum, L. (Winter); experiment: Preemergence herbicidal evaluation (Example 148); settings: rating scale 0-9, two to four weeks after treatment
# Experimental: as §1, §2
# [10] = system: DIGSA, Crabgrass, (Hairy) L, Digitaria sanguinalis, (L)Scop; experiment: Preemergence herbicidal evaluation (Example 148); settings: rating scale 0-9, two to four weeks after treatment
# Experimental: as §1, §2
# [11] = system: ECHCG, Barnyardgrass, Echinochloa crusgalli, (L.)Beau; experiment: Preemergence herbicidal evaluation (Example 148); settings: rating scale 0-9, two to four weeks after treatment
# Experimental: as §1, §2
# [12] = system: CHEAL, Lambsquarters, Chenopodium album, L. Common; experiment: Preemergence herbicidal evaluation (Example 148); settings: rating scale 0-9, two to four weeks after treatment
# Experimental: as §1, §2
# [13] = system: SETVI, Green foxtail, Setaria viridis, (L.)Beau; experiment: Postemergence herbicidal evaluation (Example 147); settings: rating scale 0-9, two to three weeks after treatment
# Experimental: (§3) Seedling plants were grown in jiffy flats for about two weeks. The test compounds were dispersed in 80/20 acetone/water mixtures containing 1.0% SUN-IT®II, a methylated seed oil, in sufficient quantities to provide the equivalent of about 0.016 to 0.032 kg per hectare of active compound when applied to the plants through a spray nozzle operating at 40 psi for a predetermined time. After spraying, the plants were placed on greenhouse benches and were cared for in accordance with conventional greenhouse procedures. Approximately two to three weeks after treatment, the seedling plants were examined and rated according to the rating scale (0-9) set forth below. Where more than one test is involved for a given compound, the data are averaged. [table] The scale is based upon a visual observation of plant stand, vigor, malformation, size, chlorosis and overall plant appearance as compared with a control. Plant species employed in these evaluations are reported by header abbreviation, common name and scientific name. [table]
# [14] = system: AMBEL, Ragweed, Common, Ambrosia artemiisifolia, L.; experiment: Postemergence herbicidal evaluation (Example 147); settings: rating scale 0-9, two to three weeks after treatment
# Experimental: as §3
# [15] = system: ZEAMX, Field corn, Zea mays L.; experiment: Postemergence herbicidal evaluation (Example 147); settings: rating scale 0-9, two to three weeks after treatment
# Experimental: as §3
# [16] = system: ALOMY, Blackgrass, Alopecurus myosuroides; experiment: Postemergence herbicidal evaluation (Example 147); settings: rating scale 0-9, two to three weeks after treatment
# Experimental: as §3
# [17] = system: IPOHE, Morningglory, Ivyleaf, Ipomoea hederacea, (L)Jacq.; experiment: Postemergence herbicidal evaluation (Example 147); settings: rating scale 0-9, two to three weeks after treatment
# Experimental: as §3
# [18] = system: ABUTH, Velvetleaf, Abutilon theophrasti, Medic.; experiment: Postemergence herbicidal evaluation (Example 147); settings: rating scale 0-9, two to three weeks after treatment
# Experimental: as §3
# [19] = system: GLXMA, Soybean, Glycine max, (L.) Merr.; experiment: Postemergence herbicidal evaluation (Example 147); settings: rating scale 0-9, two to three weeks after treatment
# Experimental: as §3
# [20] = system: TRZAW, Winter wheat, Tritium Aestivum, L. (Winter); experiment: Postemergence herbicidal evaluation (Example 147); settings: rating scale 0-9, two to three weeks after treatment
# Experimental: as §3
# [21] = system: DIGSA, Crabgrass, (Hairy) L, Digitaria sanguinalis, (L)Scop; experiment: Postemergence herbicidal evaluation (Example 147); settings: rating scale 0-9, two to three weeks after treatment
# Experimental: as §3
# [22] = system: ECHCG, Barnyardgrass, Echinochloa crusgalli, (L.)Beau; experiment: Postemergence herbicidal evaluation (Example 147); settings: rating scale 0-9, two to three weeks after treatment
# Experimental: as §3
# [23] = system: CHEAL, Lambsquarters, Chenopodium album, L. Common; experiment: Postemergence herbicidal evaluation (Example 147); settings: rating scale 0-9, two to three weeks after treatment
# Experimental: as §3
smiles,measurement,setting,value
CN(c1ccccc1)S(=O)(=O)NC(=O)c1cc(-n2c(=O)cc(C(F)(F)F)n(C)c2=O)c(F)cc1Cl [Example 73],Preemergence herbicidal rating XANST,[1]; rate 0.125 kg/ha,3.0
same,Preemergence herbicidal rating XANST,[1]; rate 0.25 kg/ha,9.0
same,Preemergence herbicidal rating SETVI,[2]; rate 0.125 kg/ha,2.0
same,Preemergence herbicidal rating SETVI,[2]; rate 0.25 kg/ha,5.0
same,Preemergence herbicidal rating AMBEL,[3]; rate 0.125 kg/ha,9.0
same,Preemergence herbicidal rating AMBEL,[3]; rate 0.25 kg/ha,9.0
same,Preemergence herbicidal rating ZEAMX,[4]; rate 0.125 kg/ha,0.0
same,Preemergence herbicidal rating ZEAMX,[4]; rate 0.25 kg/ha,0.0
same,Preemergence herbicidal rating ALMOY,[5]; rate 0.125 kg/ha,0.0
same,Preemergence herbicidal rating ALMOY,[5]; rate 0.25 kg/ha,0.0
same,Preemergence herbicidal rating IPOHE,[6]; rate 0.125 kg/ha,9.0
same,Preemergence herbicidal rating IPOHE,[6]; rate 0.25 kg/ha,9.0
same,Preemergence herbicidal rating ABUTH,[7]; rate 0.125 kg/ha,9.0
same,Preemergence herbicidal rating ABUTH,[7]; rate 0.25 kg/ha,9.0
same,Preemergence herbicidal rating GLXMA,[8]; rate 0.125 kg/ha,0.0
same,Preemergence herbicidal rating GLXMA,[8]; rate 0.25 kg/ha,0.0
same,Preemergence herbicidal rating TRZAW,[9]; rate 0.125 kg/ha,0.0
same,Preemergence herbicidal rating TRZAW,[9]; rate 0.25 kg/ha,0.0
same,Preemergence herbicidal rating DIGSA,[10]; rate 0.125 kg/ha,3.0
same,Preemergence herbicidal rating DIGSA,[10]; rate 0.25 kg/ha,3.0
same,Preemergence herbicidal rating ECHCG,[11]; rate 0.125 kg/ha,0.0
same,Preemergence herbicidal rating ECHCG,[11]; rate 0.25 kg/ha,3.0
same,Preemergence herbicidal rating CHEAL,[12]; rate 0.125 kg/ha,9.0
same,Preemergence herbicidal rating CHEAL,[12]; rate 0.25 kg/ha,9.0
same,Postemergence herbicidal rating SETVI,[13]; rate 0.016 kg/ha,4.0
same,Postemergence herbicidal rating SETVI,[13]; rate 0.032 kg/ha,5.0
same,Postemergence herbicidal rating AMBEL,[14]; rate 0.016 kg/ha,9.0
same,Postemergence herbicidal rating AMBEL,[14]; rate 0.032 kg/ha,9.0
same,Postemergence herbicidal rating ZEAMX,[15]; rate 0.016 kg/ha,7.0
same,Postemergence herbicidal rating ZEAMX,[15]; rate 0.032 kg/ha,7.5
same,Postemergence herbicidal rating ALMOY,[16]; rate 0.016 kg/ha,2.0
same,Postemergence herbicidal rating ALMOY,[16]; rate 0.032 kg/ha,3.0
same,Postemergence herbicidal rating IPOHE,[17]; rate 0.016 kg/ha,9.0
same,Postemergence herbicidal rating IPOHE,[17]; rate 0.032 kg/ha,9.0
same,Postemergence herbicidal rating ABUTH,[18]; rate 0.016 kg/ha,9.0
same,Postemergence herbicidal rating ABUTH,[18]; rate 0.032 kg/ha,9.0
same,Postemergence herbicidal rating GLXMA,[19]; rate 0.016 kg/ha,8.5
same,Postemergence herbicidal rating GLXMA,[19]; rate 0.032 kg/ha,8.5
same,Postemergence herbicidal rating TRZAW,[20]; rate 0.016 kg/ha,5.5
same,Postemergence herbicidal rating TRZAW,[20]; rate 0.032 kg/ha,6.5
same,Postemergence herbicidal rating DIGSA,[21]; rate 0.016 kg/ha,4.0
same,Postemergence herbicidal rating DIGSA,[21]; rate 0.032 kg/ha,6.0
same,Postemergence herbicidal rating ECHCG,[22]; rate 0.016 kg/ha,4.0
same,Postemergence herbicidal rating ECHCG,[22]; rate 0.032 kg/ha,7.0
same,Postemergence herbicidal rating CHEAL,[23]; rate 0.016 kg/ha,8.0
same,Postemergence herbicidal rating CHEAL,[23]; rate 0.032 kg/ha,9.0
